# Legend:
# [1] = target: GST-CBP(1081-1197) bromodomain (Homo sapiens (Human), UniProt Q92793); assay: CBP AlphaScreen Assay; details: binding to biotin-H4(1-21) Ac-K5/8/12/16
# Procedure, shortened: (§1)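 AlphaScreen binding of GST-bromodomain to biotin-H4(1-21) Ac-K5/8/12/16: 5 nM CBP with 20 nM peptide, or 2.5 nM BRD4 with 10 nM peptide, in 50 mM HEPES 7.5, […], 1 mM TCEP, 0.003% Tween-20. Compound preincubated 30 min, then beads 2 h, room temperature. IC50 from variable-slope fit.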
# BRD4(49-170) bromodomain = BRD4(49-170) bromodomain (Homo sapiens (Human), UniProt O60885); assay: BRD4 AlphaScreen Assay; details: binding to biotin-H4(1-21) Ac-K5/8/12/16
# Procedure, shortened: as §1
# Sequence of GST-CBP(1081-1197) bromodomain (Q92793 1081-1197): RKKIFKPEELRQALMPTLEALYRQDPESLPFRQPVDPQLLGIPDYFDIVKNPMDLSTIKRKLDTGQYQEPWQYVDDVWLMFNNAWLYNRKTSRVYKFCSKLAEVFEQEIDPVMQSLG
Compound,IC50 [1] [nM],IC50 (BRD4(49-170) bromodomain) [nM]
"CCC1C(=O)N(C)Cc2c(-c3cccc4nc(-c5cnn(C)c5)c(C(F)F)cc34)nc(C3CCOCC3)n21 (single isomer, unassigned) [Example 64b, 1-(3-(difluoromethyl)-2-(1-methyl-1H-pyrazol-4-yl)quinolin-5-yl)-5-ethyl-7-methyl-3-(tetrahydro-2H-pyran-4-yl)-7,8-dihydroimidazo[1,5-a] pyrazin-6(5H)-one]",46,729
"Cc1ncc(-c2cc3ccc(F)c(-c4nc(C5CCOCC5)n5c4CN(C)C(=O)C5C)c3cn2)s1 (single isomer, unassigned) [Example 37b, 1-(7-Fluoro-3-(2-methylthiazol-5-yl)isoquinolin-8-yl)-5,7-dimethyl-3-(tetrahydro-2H-pyran-4-yl)-7,8-dihydroimidazo[1,5-a]pyrazin-6(5H)-one]",647,≥ 25000
"CC1C(=O)N(C)Cc2c(-c3c(F)ccc4nc(-c5cnn(C)c5)c(C(F)F)cc34)nc(C3CCOCC3)n21 (single isomer, unassigned) [Example 36a, 1-(3-(Difluoromethyl)-6-fluoro-2-(1-methyl-1H-pyrazol-4-yl)quinolin-5-yl)-5,7-dimethyl-3-(tetrahydro-2H-pyran-4-yl)-7,8-dihydroimidazo[1,5-a]pyrazin-6(5H)-one]",2,624
"CC1C(=O)N(C)Cc2c(-c3cccc4nc(-c5cnn(C)c5)c(C(F)F)cc34)nc(C3CCS(=O)(=O)CC3)n21 (single isomer, unassigned) [Example 29b, 1-(3-(Difluoromethyl)-2-(1-methyl-1H-pyrazol-4-yl)quinolin-5-yl)-3-(1,1-dioxidotetrahydro-2H-thiopyran-4-yl)-5,7-dimethyl-7,8-dihydroimidazo[1,5-a]pyrazin-6(5H)-one]",32,592
"CN1Cc2c(N3CCCc4nc(-c5cnn(C)c5)c(C(F)(F)F)cc43)nc(C3CC3)n2CC1=O [Example 39, 3-Cyclopropyl-7-methyl-1-(6-(1-methyl-1H-pyrazol-4-yl)-7-(trifluoromethyl)-3,4-dihydro-1,5-naphthyridin-1(2H)-yl)-7,8-dihydroimidazo[1,5-a]pyrazin-6(5H)-one]",185,25000
"CN1Cc2c(N3CCCc4cc(-c5cnn(C)c5)c(C(F)F)cc43)nc(C3CC3)n2CC1=O [Example 1, 3-cyclopropyl-1-(7-(difluoromethyl)-6-(1-methyl-1H-pyrazol-4-yl)-3,4-dihydroquinolin-1(2H)-yl)-7-methyl-7,8-dihydroimidazo[1,5-a]pyrazin-6(5H)-one]",7,8810
"CN1Cc2c(-c3cccc4cc(N5CCOCC5)ncc34)nc(C3CCOCC3)n2CC1=O [Example 94, 7-methyl-1-(3-morpholinoisoquinolin-8-yl)-3-(tetrahydro-2H-pyran-4-yl)-7,8-dihydroimidazo[1,5-a] pyrazin-6(5H)-one]",145,≥ 25000
"CC(=O)N1CCC(c2nc(-c3cccc4nc(-c5cnn(C)c5)c(C(F)F)cc34)c3n2C(C)C(=O)N(C)C3)CC1 (stereo not drawn) [Example 80, 3-(1-acetylpiperidin-4-yl)-1-(3-(difluoromethyl)-2-(1-methyl-1H-pyrazol-4-yl)quinolin-5-yl)-5,7-dimethyl-7,8-dihydroimidazo[1,5-a] pyrazin-6(5H)-one]",45,2560
"Cc1ncc(-c2cc3cccc(-c4nc(C5CCOCC5)n5c4CN(C)C(=O)C5C)c3cn2)s1 (single isomer, unassigned) [Example 31a, 5,7-Dimethyl-1-(3-(2-methylthiazol-5-yl)isoquinolin-8-yl)-3-(tetrahydro-2H-pyran-4-yl)-7,8-dihydroimidazo[1,5-a]pyrazin-6(5H)-one]",38,2690
"C[C@@H]1CN(C)C(=O)c2c(-c3cccc4nc(-c5cnn(C)c5)c(C(F)F)cc34)nc(C3CCOCC3)n21 [Example 5a, (R)-1-(3-(Difluoromethyl)-2-(1-methyl-1H-pyrazol-4-yl)quinolin-5-yl)-5,7-dimethyl-3-(tetrahydro-2H-pyran-4-yl)-7,8-dihydroimidazo[1,5-a]pyrazin-(5H)-one]",4,353
"CC1C(=O)N(C)Cc2c(-c3cccc4nc(-c5cnn(C)c5)c(C(F)F)cc34)nc(C3CNC3)n21 (stereo not drawn) [Example 18, 3-(Azetidin-3-yl)-1-(3-(difluoromethyl)-2-(1-methyl-1H-pyrazol-4-yl)quinolin-5-yl)-5,7-dimethyl-7,8-dihydroimidazo[1,5-a]pyrazin-6(5H)-one]",50,17500
"CC1C(=O)N(C)Cc2c(-c3cccc4cc(-c5noc(=O)[nH]5)ncc34)nc(C3CC3)n21 (single isomer, unassigned) [Example 44a, 3-(8-(3-Cyclopropyl-5,7-dimethyl-6-oxo-5,6,7,8-tetrahydroimidazo[1,5-a]pyrazin-1-yl)isoquinolin-3-yl)-1,2,4-oxadiazol-5(4H)-one]",68,> 25000
"CC1C(=O)N(C)Cc2c(-c3cccc4nc(-c5cnn(C)c5)c(C#N)cc34)nc(C3CC3)n21 (single isomer, unassigned) [Example 56a, 5-(3-cyclopropyl-5,7-dimethyl-6-oxo-5,6,7,8-tetrahydroimidazo[1,5-a]pyrazin-1-yl)-2-(1-methyl-1H-pyrazol-4-yl)quinoline-3-carbonitrile]",424,25000
"Cc1nn(C)cc1-c1cc2cccc(-c3nc(C4CC4)n4c3CN(C)C(=O)C4C)c2cn1 (stereo not drawn) [Example 63, 3-cyclopropyl-1-(3-(1,3-dimethyl-1H-pyrazol-4-yl)isoquinolin-8-yl)-5,7-dimethyl-7,8-dihydroimidazo[1,5-a] pyrazin-6(5H)-one]",1,76
"Cc1nn(C)cc1-c1cc2cccc(-c3nc(C4CCOCC4)n4c3CN(C)C(=O)C4)c2cn1 [Example 96, 1-(3-(1,3-dimethyl-1H-pyrazol-4-yl)isoquinolin-8-yl)-7-methyl-3-(tetrahydro-2H-pyran-4-yl)-7,8-dihydroimidazo[1,5-a] pyrazin-6(5H)-one]",181,12600
"CC1C(=O)N(C)Cc2c(-c3cccc4nc(-c5cnn(C)c5)c(C(F)F)cc34)nc(C3(C)CCOCC3)n21 (single isomer, unassigned) [Example 32b, 1-(3-(Difluoromethyl)-2-(1-methyl-1H-pyrazol-4-yl)quinolin-5-yl)-5,7-dimethyl-3-(4-methyltetrahydro-2H-pyran-4-yl)-7,8-dihydroimidazo[1,5-a]pyrazin-6(5H)-one]",2,351
"CC1C(=O)N(C)Cc2c(-c3ccc4c(c3)c(-c3cnn(C)c3)nn4C)nc(C3=CCOCC3)n21 (stereo not drawn) [Example 41, 3-(3,6-Dihydro-2H-pyran-4-yl)-5,7-dimethyl-1-(1-methyl-3-(1-methyl-1H-pyrazol-4-yl)-1H-indazol-5-yl)-7,8-dihydroimidazo[1,5-a]pyrazin-6(5H)-one]",14,1620
"CC1C(=O)N(C)Cc2c(-c3cccc4nc(-c5cnn(C)c5)c(C#N)cc34)nc(C3CCOCC3)n21 (single isomer, unassigned) [Example 8a, 5-(5,7-dimethyl-6-oxo-3-(tetrahydro-2H-pyran-4-yl)-5,6,7,8-tetrahydroimidazo[1,5-a]pyrazin-1-yl)-2-(1-methyl-1H-pyrazol-4-yl)quinoline-3-carbonitrile]",513,≥ 25000
"CC1C(=O)N(C)Cc2c(-c3cccc4nc(-c5cnn(C)c5)c(C(F)F)cc34)nc(C3CN(CCO)C3)n21 (stereo not drawn) [Example 28, 1-(3-(Difluoromethyl)-2-(1-methyl-1H-pyrazol-4-yl)quinolin-5-yl)-3-(1-(2-hydroxyethyl)azetidin-3-yl)-5,7-dimethyl-7,8-dihydroimidazo[1,5-a]pyrazin-6(5H)-one]",123,9370
"Cc1ncc(-c2cc3ccc(C)c(-c4nc(C5CCOCC5)n5c4CN(C)C(=O)C5C)c3cn2)s1 (single isomer, unassigned) [Example 38a]",8,1810
"Cc1cn(-c2cc3cccc(-c4nc(C5CCOCC5)n5c4CN(C)C(=O)C5C)c3cn2)cn1 (single isomer, unassigned) [Example 30a, 5,7-dimethyl-1-(3-(4-methyl-1H-imidazol-1-yl)isoquinolin-8-yl)-3-(tetrahydro-2H-pyran-4-yl)-7,8-dihydroimidazo[1,5-a]pyrazin-6(5H)-one]",1,96
"CC1C(=O)N(C)Cc2c(-c3cccc4cc(-c5ccn(C)n5)ncc34)nc(C3CCOCC3)n21 (stereo not drawn) [Example 86, 5,7-dimethyl-1-(3-(1-methyl-1H-pyrazol-3-yl)isoquinolin-8-yl)-3-(tetrahydro-2H-pyran-4-yl)-7,8-dihydroimidazo[1,5-a] pyrazin-6(5H)-one]",1,232
"CC1C(=O)N(C)Cc2c(-c3cccc4nc(-c5cnn(C)c5)c(C(F)F)cc34)nc(C3CN(CC(F)F)C3)n21 (stereo not drawn) [Example 22, 3-(1-(2,2-Difluoroethyl)azetidin-3-yl)-1-(3-(difluoromethyl)-2-(1-methyl-1H-pyrazol-4-yl)quinolin-5-yl)-5,7-dimethyl-7,8-dihydroimidazo[1,5-a]pyrazin-6(5H)-one]",11,4340
"CC1C(=O)N(C)Cc2c(-c3cccc4nc(-c5cnn(C)c5)c(C(F)F)cc34)nc(C3CCN(CC(F)(F)F)CC3)n21 (stereo not drawn) [Example 77, 1-(3-(difluoromethyl)-2-(1-methyl-1H-pyrazol-4-yl)quinolin-5-yl)-5,7-dimethyl-3-(1-(2,2,2-trifluoroethyl)piperidin-4-yl)-7,8-dihydroimidazo [1,5-a] pyrazin-6(5H)-one]",34,2890

# Source: patent US10899769B2, “Imidazopiperazinone inhibitors of transcription activating proteins” (Board of Regents, The University of Texas System, priority 2018, dated 2021)
